Experimental data published in PMC6424980, “Distinct G protein-coupled receptor phosphorylation motifs modulate arrestin affinity and activation and global conformation” (Nature Communications, 2019).
One block for each molecule: values may come before it. Non-standard residues stand in square brackets, D forms with d. No end group written: not given here. pT = C[C@@H](OP(=O)(O)O)[C@H](N)C(=O)O; pS = N[C@@H](COP(=O)(O)O)C(=O)O

Assays:
arrestin-1 (F85A, F197A) = assay: Limited trypsin digestion of arrestin-1 in presence of peptide; type: biochemical, bovine; settings: arrestin:peptide 1:1.2, 35 °C, SDS PAGE
Description: (§1) Synthesized cDNAs of bovine arrestin-1, human arrestin-2 and human arrestin-3 were ordered from Genewiz, amplified by PCR and cloned (Supplementary Information Table 5) into the pET-15b vector (Novagen), using the Gibson Assembly protocol. The constructs contained an N-terminal hexa histidine tag linked by a linker that contained a Tobacco Etch Virus cleavage site (TEV; […]). PCR was used to introduce the monomerizing arrestin-1 mutations (F85A, F197A)[58]. Note that this mutant was employed for fluorescence anisotropy, trypsin digestion, and NMR experiments. Wild-type arrestin-2 and -3 were used for fluorescence anisotropy and trypsin digestion experiments. […] The arrestin-1 in this construct had the wild-type sequence. Note that this construct differs slightly from that previously published[59],[60] and was optimized for purification. We verified the functionality of this fusion construct using the standard centrifugal pull-down assay using phosphorylated rhodopsin in native ROS membranes.
Arrestin (60 µg) was mixed at a 1 to 1.2 molar ratio with peptide and preincubated at RT for 5 min before 1 μl of 0.15 mg/ml trypsin stock was added. The enzymatic digestion was carried out at 35 °C (20 mM Bis-Tris propane pH 7.0, 150 mM NaCl, 10 mM 2‑Mercaptoethanol and 2 mM EDTA). At certain time points (5, 15, 30, 60, 90 min), 5 μl aliquots were quenched with heat incubation in the presence of 20 μl SDS loading buffer (95 °C, 5 min) and then subjected to SDS PAGE. Bands were visualized with InstantBlue (Expedeon).

arrestin-1 = assay: [15N,1H]TROSY NMR titration of arrestin-1 with peptide; type: binding, bovine; settings: peptide:arrestin-1 up to 10:1
Experimental: ^2H,^15N,^13C-labeled arrestin-1 aliquots were thawed quickly under running water, transferred to 30 kDa-cutoff Vivaspin (0.5 ml, Sartorius) centrifugal spin concentrators, and concentrated to approximately 600 μM. The concentrator was immediately transferred into a beaker filled with 400 ml of NMR buffer 1 or 2 (see below) carried by a floatation device. The dialysis was performed at 4 °C overnight. On the next day the concentration was determined by UV absorbance at 280 nm (molar extinction coefficient 26,360/mol/cm). […] The dialysis was performed at 4 °C overnight, and the peptide concentration was determined by its absorbance at 205 nm (molar extinction coefficient: 54,310/mol/cm). […]
NMR measurements were performed on Bruker Avance III-HD 600 or 900 MHz spectrometer using a CTCI cryo-cooled probehead. […] Pulse lengths were calibrated for ^1H manually and for ^13C/^15N using an in-house automated procedure. pH was monitored using the position of the phosphate signal in NMR buffer 2 as an internal reference and varied by no more than 0.03 pH units during peptide titration experiments. [^15N,^1H]TROSY experiments were recorded with internal ETH pulse sequences, whereas 3D triple resonance TROSY experiments were recorded using the manufacturer’s pulse sequences. […]

[1] = molecular target: T1, arrestin-1 (monomerizing mutant F85A, F197A) (Bos taurus, UniProt P08168, F197A/F85A); assay: Fluorescence anisotropy binding of fluorescein-labelled peptides to arrestin-1; design: species or system bovine
T1 construct: made in house; host or cells: E. coli NiCo (DE3) cells (New England Biolabs), pET-15b vector
Description: as §1
0.1–0.2 mg of lyophilized peptide was dissolved in 50 µl of 50 mM phosphate-buffered saline (PBS) buffer at pH 7.0, and then two molar equivalents of fluorescein-5-maleimide dye stock dissolved in dimethylsulfoxid was added. The reaction was carried out at RT in the dark. After 1 h the reaction was topped up with 1 ml of ice-cold 100% acetone and stored until the next day at −20 °C. The precipitated peptide was centrifuged (13,000 × g) for 10 min. The labeled and precipitated peptide was sedimented, and the supernatant was removed. The peptide was resuspended again in ice-cold acetone, stored for 1 h at −20 °C and centrifuged (13,000 × g) for 10 min. […] The precipitated peptide was dried at RT in the dark. It was dissolved in 50 µl of 20 mM Bis-Tris propane pH 7.0 and 150 mM NaCl and its concentration was determined by absorbance. A molar extinction coefficient of 70,000/M/cm at pH 7.0 was assumed for calculating the concentration of the labeled peptide stock.
An 11-step serial dilution series of arrestin in 20 mM Bis-Tris propane pH 7.0, 150 mM NaCl, 8 mM 2‑mercaptoethanol, 2% (w/w) BSA, 0.02% (v/v) Tween-20 was prepared and transferred to a black high-bottom 384-well plate (Greiner). As control for free peptide, a position with only buffer was included. The peptide was added at a final concentration of 20 nM to each well. The plate was closed by a clear cover and vortexed for 15 s. Afterwards it was centrifuged (800 × g) for 2 min and stored at RT for 20 min. The reading was performed by default settings of PHERAstar plate-reader (BMG Labtech) and excitation‑/emission-wavelengths of 485 nm (12 nm bandpass)/520 nm (30 nm bandpass) were used. The analysis was performed using Origin2016 (Microcal Inc) software by fitting the data to a one-to-one binding model:2 r=R0+△R*P/Kd+P, where r stands for anisotropy, R0 stands for anisotropy of the ligand, ΔR stands for anisotropy of the complex minus anisotropy of the ligand, P stands for the concentration of protein, and Kd stands for the dissociation constant of the ligand.

[2] = test system: arrestin-1 mutants I72B and F197NBD with nonphosphorylated light-activated rhodopsin in ROS membranes; assay: Ternary complex formation (site-directed fluorescence and centrifugal pull-down); type: biochemical, bovine; settings: 10 µM rhodopsin in ROS, 1 µM arrestin-1 I72B or F197NBD, 100 µM peptide, pH 7
Description: Recombinant bovine arrestin-1 cloned into the pET15b vector was expressed and purified as described. The basic construct was a modified wild-type sequence that contained no native cysteines (C63A, C128S and C143A) nor tryptophans (W194F). Single cysteine residues were introduced by PCR at sites 72 or 197 as previously described. The I72C mutant was labeled with monobromobimane (Thermo Fisher) and is referred to as I72B. The F197C mutant was labeled with N,N′-Dimethyl-N-(Iodoacetyl)-N′-(7-Nitrobenz-2-Oxa-1,3-Diazol-4-yl)Ethylenediamine (IANBD amide, Thermo Fisher) and is referred to as F197NBD. Labeling was carried out as previously described[43],[61]. Both labeled mutants were assessed to be functionally similar to wild-type arrestin-1 using the Extra Meta II assay, which determines the ability of arrestin-1 to bind and stabilize the active Meta II form of rhodopsin[64].
Under dim-red light, samples were prepared that contained nonphosphorylated rhodopsin (10 µM) in ROS membranes, 1 µM arrestin-1 I72B or F197NBD, ±100 µM peptide in 50 mM HEPES, 130 mM NaCl, pH 7 (150 or 200 µl sample volume). One hundred microliters of the sample was used for fluorescence measurements, and the remainder was used for the centrifugal pull-down assay (50 µl per assay). Steady-state fluorescence measurements were performed using a SPEX Fluorolog (1680) instrument in front-face mode. Bimane fluorescence was recorded using an excitation wavelength of 400 nm and emission 424–600 nm, and NBD fluorescence was recorded using an excitation wavelength of 500 nm and emission 524–660 (2 nm step size, 0.5 s integration per point). Excitation slits were narrowed to 0.1−0.2 nm to minimize light-activation of rhodopsin, and emission slits were set at 4 nm. Pull-down analysis was performed by centrifuging samples at 16,000 × g for 10 min at 20 °C. Selected samples were light activated (>495 nm) for 15 s prior to centrifugation (appr. 60 s delay time). Following centrifugation, the supernatants were removed, and the pellets were solubilized in loading buffer containing 2% SDS and subjected to SDS PAGE. Bands were visualized using Coomassie Brilliant Blue.

arrestin-2 = assay: Fluorescence anisotropy binding of fluorescein-labelled peptides to arrestin-2; design: species or system human
Description: as §1
0.1–0.2 mg of lyophilized peptide was dissolved in 50 µl of 50 mM phosphate-buffered saline (PBS) buffer at pH 7.0, and then two molar equivalents of fluorescein-5-maleimide dye stock dissolved in dimethylsulfoxid was added. The reaction was carried out at RT in the dark. […] It was dissolved in 50 µl of 20 mM Bis-Tris propane pH 7.0 and 150 mM NaCl and its concentration was determined by absorbance. […]

[3] = molecular target: fully phosphorylated peptide 7P of the bovine rhodopsin C-terminus (bovine); assay: fluorescence polarisation; fluorescence anisotropy; 20 nM fluorescently labelled peptide, 11-step serial dilution of arrestin; 20 mM Bis-Tris propane pH 7.0, 150 mM NaCl, 8 mM 2-mercaptoethanol, 2% BSA, 0.02% Tween-20; RT; one-to-one binding model
[4] = molecular target: bovine arrestin-1 with the monomerizing mutations F85A, F197A (bovine, UniProt P08168 2-404, F85A | F197A); assay: FP

Molecule: CDDEASTTVSKTETSQVAPA [0P, nonphosphorylated peptide analog of the bovine rhodopsin C-terminus with N-terminal cysteine]
limited trypsin digest pattern of arrestin-1 (conformational change, C-tail displacement) (arrestin-1 (F85A, F197A)): three major bands
NMR chemical shift / peak changes in arrestin-1 (in words) (arrestin-1): some minor changes in peak intensity

Molecule: CDDEASTTVSKTETSQVAPA [3Pf]
binding to arrestin-1 (in words) [1]: significant loss of arrestin-1 affinity
ternary complex formation (arrestin-1, nonphosphorylated rhodopsin, peptide) [2]: less ternary complex formation
limited trypsin digest pattern of arrestin-1 (conformational change, C-tail displacement) (arrestin-1 (F85A, F197A)): notable exception
binding to arrestin-2 (in words) (arrestin-2): bound well

Kd [3]: < 250 µM
Molecule: bovine arrestin-1 with the monomerizing mutations F85A, F197A (from UniProt P08168 2-404) (natural protein)

Kd [4]: 94 µM
B1: tri-phosphorylated peptide 3Pd of the bovine rhodopsin C-terminus (peptide)
chain: C(fluorescein‑5‑maleimide)DDEASTTVSK[pT]ET[pS]QVAPA
modifications: also: third phosphorylation site not given here
